Data taken from ChEMBL document CHEMBL1144852, “Optimization of a dihydropyrrolopyrazole series of transforming growth factor-beta type I receptor kinase domain inhibitors: discovery of an orally bioavailable transforming growth factor-beta receptor type I inhibitor as antitumor agent” (J Med Chem, 2008).

Tests used:
TGF-beta receptor type-1 = TGF-beta receptor type-1 (Homo sapiens, UniProt P36897, T204D); assay: Inhibition of TGFbeta type receptor 1 ALK5 (T204D) expressed in Sf9 cells
NIH3T3 = assay: Antiproliferative activity against mouse NIH3T3 cells by [3H]thymidine assay; assay type: functional, cell-based
[1] = Antiproliferative activity against mink Mv1Lu-p3TP-Lux cells by luciferase reporter assay; assay type: functional, cell-based, Neovison vison; settings: Neogale vison
[2] = AUC in rat at 10 mg/kg, po; assay type: ADME, organism-based; design: dose 10 mg/kg, route oral; settings: plasma
Mus musculus [3] = assay: Inhibition of TGFbeta type receptor 1 in human Calu6 cells xenografted mouse at 50 mg/kg, po by single point IVTI assay; assay type: functional, Calu-6; design: scale not given: the % may be the effect or the level left
Mus musculus [4] = assay: Inhibition of TGFbeta type receptor 1 in orally dosed human Calu6 cells xenografted mouse by IVTI […] assay; assay type: functional, organism-based; settings: Calu-6
[5] = Metabolic stability in rat microsomes; assay type: ADME, Microsome; also: time not given here
Caco-2 = assay: Permeability from apical to basolateral side of human Caco-2 cell membrane; assay type: ADME, cell-based
Liver microsomes = assay: Metabolic stability in human liver microsomes; assay type: ADME, Microsome; also: time not given here

SMILES	IC50 (TGF-beta receptor type-1)	IC50 (NIH3T3)	IC50 [1]	also measured
CN(C)Cc1ccc(Oc2ccc3c(-c4c(-c5ccccn5)nn5c4CCC5)ccnc3c2)cc1	750 nM			
Cc1cccc(-c2nn3c(c2-c2ccnc4ccc(C(=O)NCCN(C)C)cc24)CCC3)n1	193 nM	2270 nM	468 nM	
CN(C)CCCCCOc1ccc2c(-c3c(-c4ccccn4)nn4c3CCC4)ccnc2c1	47 nM	51 nM	24 nM	
Cc1cccc(-c2nn3c(c2-c2ccnc4ccc(Br)cc24)CCC3)n1	89 nM	338 nM	55 nM	
CN(C)CC(=O)Nc1ccc2c(-c3c(-c4ccccn4)nn4c3CCC4)ccnc2c1				AUC [2]: 398 ng·h/mL
c1ccc(-c2nn3c(c2-c2cc(N4CCCC4)nc4ccccc24)CCC3)nc1	> 20000 nM		> 20000 nM	
N#Cc1ccc(Oc2ccc3c(-c4c(-c5ccccn5)nn5c4CCC5)ccnc3c2)cc1	1200 nM			
O=C(O)c1ccc(Oc2ccc3c(-c4c(-c5ccccn5)nn5c4CCC5)ccnc3c2)cc1	4800 nM	> 20000 nM	> 20000 nM	
CN1CCCC1CCCOc1ccc2c(-c3c(-c4ccccn4)nn4c3CCC4)ccnc2c1 (configuration not stated)	72 nM	20 nM	17 nM	Activity (Mus musculus [3]): 75%; EC50 (Mus musculus [4]): 377 nM
CCSc1cc(-c2c(-c3ccccn3)nn3c2CCC3)c2ccccc2n1	> 20000 nM		> 20000 nM	
COC(=O)c1ccc2nccc(-c3c(-c4cccc(C)n4)nn4c3CCC4)c2c1	526 nM		403 nM	
CCN(C)CCOc1ccc2c(-c3c(-c4ccccn4)nn4c3CCC4)ccnc2c1	85 nM	72 nM	61 nM	Stability [5]: 57%; permeability (Caco-2): 27%; Activity (Mus musculus [3]): 70%; EC50 (Mus musculus [4]): 343 nM; Stability (Liver microsomes): 29%
CN1CCN(C(=O)COc2ccc3c(-c4c(-c5ccccn5)nn5c4CCC5)ccnc3c2)CC1	49 nM	730 nM	260 nM	
